Laboratory results from patent US8022099B2, “N-benzyl pyrrolidine derivatives” (Hoffmann-La Roche Inc., priority 2008, dated 2011).

Molecular target: T1, human NK3 receptor (Homo sapiens, UniProt P29371)
T1 construct: expressed in transfected cells; host or cells: HEK293 cells (transient expression), membrane preparation
T1 sequence (P29371 1-465): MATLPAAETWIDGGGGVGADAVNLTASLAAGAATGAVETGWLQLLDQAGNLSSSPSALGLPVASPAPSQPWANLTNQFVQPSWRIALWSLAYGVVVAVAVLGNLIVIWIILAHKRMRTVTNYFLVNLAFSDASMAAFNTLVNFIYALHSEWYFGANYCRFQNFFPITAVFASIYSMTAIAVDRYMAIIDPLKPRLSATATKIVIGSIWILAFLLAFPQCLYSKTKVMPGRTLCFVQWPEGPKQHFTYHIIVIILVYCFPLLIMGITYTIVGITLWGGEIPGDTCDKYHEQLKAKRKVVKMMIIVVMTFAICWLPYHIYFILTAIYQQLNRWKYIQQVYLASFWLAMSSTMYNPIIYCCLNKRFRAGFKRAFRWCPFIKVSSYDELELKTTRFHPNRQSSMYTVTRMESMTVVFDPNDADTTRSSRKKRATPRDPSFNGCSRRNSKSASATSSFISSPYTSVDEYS
Assay: [3H]SR142801 competition binding assay
Details: hNK3 receptor binding, [3H]SR142801, membranes from HEK293 cells transiently expressing recombinant human NK3 receptor
Summary of the method: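 Membranes from HEK293 cells transiently expressing human NK3 were incubated 75 min at RT with [3H]SR142801 at its KD and inhibitor (0.0003-10 μM) in Tris-HCl pH 7.4/MnCl2/phosphoramidon/BSA. Nonspecific binding used 10 μM SB222200. Ki from Hill-fitted IC50 via Cheng-Prusoff, duplicate determinations.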

Compound	Ki [nM]
CC(=O)NC1CCN(CC(=O)N2C[C@H](c3ccc(Cl)c(Cl)c3)[C@@H](N(C)Cc3ccc(C(F)(F)F)c(F)c3)C2)CC1 (racemic) [Example 137, N-[1-(2-{(3SR,4RS)-3-(3,4-Dichloro-phenyl)-4-[(3-fluoro-4-trifluoromethyl-benzyl)-methyl-amino]-pyrrolidin-1-yl}-2-oxo-ethyl)-piperidin-4-yl]-acetamide]	8.7
CC(=O)N1CCN(CC(=O)N2C[C@H](c3ccc(Cl)c(Cl)c3)[C@@H](N(C)Cc3ccc(C(F)(F)F)c(F)c3)C2)CC1 (racemic) [Example 138, 2-(4-Acetyl-piperazin-1-yl)-1-{(3SR,4RS)-3-(3,4-dichloro-phenyl)-4-[(3-fluoro-4-trifluoromethyl-benzyl)-methyl-amino]-pyrrolidin-1-yl}-ethanone]	8.8
CC1CN(CC(=O)N2C[C@H](c3ccc(Cl)c(Cl)c3)[C@@H](N(C)Cc3ccc(C(F)(F)F)c(F)c3)C2)CC(C)N1 (mixture of isomers) [Example 139, 1-{(3SR,4RS)-3-(3,4-Dichloro-phenyl)-4-[(3-fluoro-4-trifluoromethyl-benzyl)-methyl-amino]-pyrrolidin-1-yl}-2-(3,5-dimethyl-piperazin-1-yl)-ethanone]	24.9
CC1CN(CC(=O)N2C[C@H](c3ccc(Cl)c(Cl)c3)[C@@H](N(C)Cc3ccc(C(F)(F)F)c(F)c3)C2)CC(C)O1 (mixture of isomers) [Example 142, 1-{(3SR,4RS)-3-(3,4-Dichloro-phenyl)-4-[(3-fluoro-4-trifluoromethyl-benzyl)-methyl-amino]-pyrrolidin-1-yl}-2-(2,6-dimethyl-morpholin-4-yl)-ethanone]	19.7
CN(Cc1ccc(C(F)(F)F)c(F)c1)[C@H]1CN(C(=O)CN2CCC(NS(C)(=O)=O)CC2)C[C@@H]1c1ccc(Cl)c(Cl)c1 (racemic) [Example 143, N-[1-(2-{(3SR,4RS)-3-(3,4-Dichloro-phenyl)-4-[(3-fluoro-4-trifluoromethyl-benzyl)-methyl-amino]-pyrrolidin-1-yl}-2-oxo-ethyl)-piperidin-4-yl]-methanesulfonamide]	12
CN(Cc1ccc(C(F)(F)F)c(F)c1)[C@H]1CN(C(=O)CN2CCC(N(C)S(C)(=O)=O)CC2)C[C@@H]1c1ccc(Cl)c(Cl)c1 (racemic) [Example 144, N-[1-(2-{(3SR,4RS)-3-(3,4-Dichloro-phenyl)-4-[(3-fluoro-4-trifluoromethyl-benzyl)-methyl-amino]-pyrrolidin-1-yl}-2-oxo-ethyl)-piperidin-4-yl]-N-methyl-methanesulfonamide]	5.9
CN(Cc1ccc(C(F)(F)F)c(F)c1)[C@H]1CN(C(=O)CN2CCC(N3CCOCC3=O)CC2)C[C@@H]1c1ccc(Cl)c(Cl)c1 (racemic) [Example 145, 4-[1-(2-{(3SR,4RS)-3-(3,4-Dichloro-phenyl)-4-[(3-fluoro-4-trifluoromethyl-benzyl)-methyl-amino]-pyrrolidin-1-yl}-2-oxo-ethyl)-piperidin-4-yl]-morpholin-3-one]	13.7
CN(Cc1ccc(C(F)(F)F)c(F)c1)[C@H]1CN(C(=O)CN2CCC(N3CCCCC3=O)CC2)C[C@@H]1c1ccc(Cl)c(Cl)c1 (racemic) [Example 146, 1′-(2-{(3SR,4RS)-3-(3,4-Dichloro-phenyl)-4-[(3-fluoro-4-trifluoromethyl-benzyl)-methyl-amino]-pyrrolidin-1-yl}-2-oxo-ethyl)-[1,4′]bipiperidinyl-2-one]	14.9
CC(=O)N(C)C1CCN(CC(=O)N2C[C@H](c3ccc(Cl)c(Cl)c3)[C@@H](N(C)Cc3ccc(C(F)(F)F)c(F)c3)C2)CC1 (racemic) [Example 147, N-[1-(2-{(3SR,4RS)-3-(3,4-Dichloro-phenyl)-4-[(3-fluoro-4-trifluoromethyl-benzyl)-methyl-amino]-pyrrolidin-1-yl}-2-oxo-ethyl)-piperidin-4-yl]-N-methyl-acetamide]	13.8
